Experimental data taken from patent US20150203471A1, “METHODS FOR IMPROVING CHICKEN PRODUCTION” (ELI LILLY AND COMPANY, priority 2012, published 2015).
Counter-ions that a name gives are not always drawn. Like-named read-outs stand apart in the source and are kept apart here.

What was measured:
[1] = test system: Hubbard M99 X Cobb chicks; experiment: Study 3: dose response in live performance and carcass yields of commercial broilers raised to a small-size market; format: in vivo, chicken
Method: This study is conducted to determine the dose response of the Compound 5 measured in live performance and carcass yields of commercial broilers raised to a small-size market when fed a “typical” feed. 2400 Hubbard M99 X Cobb chicks (1200 male/1200 female) are used in this study. Compound 5 is administered at the following doses: 0, 2, 4, 8, and 16 ppm, orally in feed, beginning when the chicks are 24 days of age and ending when the chicks are 38 days of age. The five different Compound 5 doses are administered in a mash diet formulated to meet all nutrient recommendations using only commercially available ingredients.
Parameters measured in the study include ADG (average daily gain), ADFI (average daily feed intake), GE (gain efficiency), and FE (feed efficiency). The birds are measured for carcass (without giblets), breast muscle (boneless-skinless), and leg-quarter weights. The live body weight on the day of processing is used to calculate the yields for carcass, breast meat, and leg quarters for the birds.

[2] = test system: male broilers; experiment: Study 1: growth performance and carcass responses of male broilers, compounds in feed vs positive and negative controls; format: in vivo, chicken; details: 14 days; for change in vivo at 15 ppm, 15 µg/mL: Gallus gallus, feed or water, 336 h
From the text: An objective of this study is to evaluate growth performance and carcass responses of male broilers by comparing non-zero dosages of the above compounds versus a positive control (Compound 1) and negative controls. Table 1 sets out the specific treatment groups:
(§1) The route of administration is oral, with the compounds mixed in feed, and provided Ad libitum. The age of the chickens of Day 1 of the study is 35 days old. Body weights are taken on the following days: • 1) Study Day 1 (pen weight) • 2) Study Day 14 (individual animal weights) • 3) Study Day 15 (individual weights on selected animals) • 4) Study Day 16 (blocks 1-5) • 5) Study Day 17 (blocks 6-10).
(§2) Following collection of final weights, the following processing data is collected (hot weights) on individual animals: • 1) Live weight • 2) Hot carcass weight • 3) Fat pad weight • 4) Hot breast muscle weight • 5) Hot bone in leg weight

[3] = test system: male broilers; experiment: Study 2: growth performance and carcass responses of male broilers, compounds in feed in the last 14 days prior to slaughter; format: in vivo, chicken
Method: Compounds 2, 5, and 9 are used in this study. The study is conducted to evaluate growth performance and carcass responses of male broilers by comparing non-zero dosages of the compounds, versus negative control, administered in the last 14 days prior to slaughter. Table 3 sets out the specific treatment groups.
as §1, with “15” for “14”, “16” for “15”, “animals in animals in blocks 1-4)” for “animals)”, “Day” for “Day 16 (blocks 1-5) • 5) Study Day”, “(individual weights on selected animals in animals in blocks 5-8)” for “(blocks 6-10).”
as §2

[4] = test system: Ross X Ross 708 male chicks; experiment: Study 4: live performance and carcass traits of broilers; format: in vivo, chicken; details: 16 ppm in feed vs 0 ppm, 34 to 48 days of age
Method: (§3) This study is conducted to investigate the effects of Compound 5 on live performance and carcass traits of broilers, and to evaluate the emission of various gases from broilers provision of feed with or without Compound 5. Ross X Ross 708 male chicks are used in this study. Compound 5 is administered at the following doses: 0 and 16 ppm, orally in feed, beginning when the chicks are 34 days of age and ending when the chicks are 48 days of age. The Compound 5 doses are administered in a mash diet formulated to meet all nutrient recommendations using only commercially available ingredients.
(§4) Parameters measured in the study include ADG, ADFI, and FCR. The birds are measured for carcass (without giblets), breast muscle (boneless-skinless), leg-quarter, and abdominal fat weights. The live body weight on the day of processing is used to calculate the yields for carcass, breast meat, and leg quarters for the birds. Also measured are emissions of various gases. Cumulative gas emission are monitored and calculated for the following gases: NH3, NO, NO2, H2S, SO2, methane/non-methane total hydrocarbon, O2, and CO2. The efficacy of Compound 5 is determined by the cumulative emission of these gases, as well as by standardizing these cumulative values to their body, carcass, breast meat, and leg-quarter weights.

[5] = test system: Ross X Ross 708 male chicks; experiment: Study 4: cumulative gas emission from broilers; format: in vivo, chicken; details: 16 ppm in feed, 34 to 48 days of age, compared to untreated birds
Method: as §3, §4

[6] = Ames assay (mutagenicity); format: cell-based; details: compared with the other compounds tested
[7] = test system: Zebrafish; experiment: Zebrafish assay (teratogenesis/chromosomal impact); format: in vivo; details: compared with the other compounds tested
[8] = 0, 2, 4, 8, 16 ppm in feed, 24 to 38 days of age
[9] = 0, 2, 4, 8, 16 ppm in feed, 24 to 38 days of age, male and female chicks
[10] = 15 ppm in feed ad libitum, male broilers, percent change from negative control, * in cell = not significant

CC(C)(Cc1ccc(Oc2ccccn2)cc1)NC[C@H](O)COc1cccc2c1C(C)(C)C(=O)N2 [Compound 5, 4-[{(2S)-3-({1,1-dimethyl-2-[4-(pyridin-2-yloxy)phenyl]ethyl}amino)-2-hydroxypropyl]oxy}-3,3-dimethyl-1,3-dihydro-2H-indol-2-one hydrochloride]
leg-quarter weight [1, 8]: Improvements are observed | leg-quarter yield [1, 8]: Improvements are observed | FE (feed efficiency) [1, 9]: Improvements are observed | GE (gain efficiency) [1, 9]: Improvements are observed | dose response of the improvements (GE, FE, leg-quarter weight and yield) ([1]; doses 2, 4, 8, 16 ppm in feed): doses at above 2 ppm do not show additional benefit | GE and FE by sex ([1]; male versus female broilers, 24 to 38 days of age): positively impacted only in female broilers | Ave daily live wt gain % inc. [2, 10]: 5.8% | Breast wt % inc. [2, 10]: 6.0% | Feed intake % inc. [2, 10]: 1.1* % | Gain effic % inc. [2, 10]: 4.9% | Leg wt % inc. [2, 10]: 8.1% | Fat Pad wt % dec. ([2]; 15 ppm in feed ad libitum, male broilers, percent decrease from negative control, * in cell = not significant): 17.4% | fat pad weight (in words) ([2]; 15 ppm in feed): reduce fat pad weight | feed intake (in words) ([2]; 15 ppm in feed): significant increase in feed intake | gain versus untreated control (in words) ([2]; 15 ppm in feed): significantly greater than untreated control | significance of the fat pad weight difference ([2]; 15 ppm in feed): significant | improvement versus negative control and positive control (in words) ([2]; 15 ppm in feed, positive control = Compound 1): significantly better improvement than both the negative control and the positive control | change in vivo at 15 ppm, 15 µg/mL ([2]; 15 ppm in feed ad libitum, male broilers 35 days old at Day 1, percent change from negative control, * in cell = not significant vs negative control, read-out: ADG % inc.): 5.1% | change in vivo at 15 ppm, 15 µg/mL ([2]; 15 ppm in feed ad libitum, male broilers, percent change from negative control, * in cell = not significant, read-out: Hot carcass wt % inc.): 5.8% | ADG versus negative control group ([3]; 3.5 ppm in feed): significantly higher | F/G ratio (feed:gain efficiency) versus negative control group ([3]; 3.5 ppm in feed): significantly lower | G/F ratio (gain:feed efficiency) versus negative control group ([3]; 3.5 ppm in feed): significantly higher | hot bone-in leg weight versus negative control group ([3]; 3.5 ppm in feed): significantly higher | hot breast muscle weight versus negative control group ([3]; 3.5 ppm in feed): significantly higher | hot carcass weight versus negative control group ([3]; 3.5 ppm in feed): significantly higher | ADG versus negative control group ([3]; 7 ppm in feed): significantly higher | F/G ratio (feed:gain efficiency) versus negative control group ([3]; 7 ppm in feed): significantly lower | G/F ratio (gain:feed efficiency) versus negative control group ([3]; 7 ppm in feed): significantly higher | hot bone-in leg weight versus negative control group ([3]; 7 ppm in feed): significantly higher | hot breast muscle weight versus negative control group ([3]; 7 ppm in feed): significantly higher | hot carcass weight versus negative control group ([3]; 7 ppm in feed): significantly higher | live performance and carcass traits monitored [4]: improvements in all live performance carcass traits monitored, except for ADFI and mortality | reduction in NH3 emission standardized to live weight of the birds or its saleable cuts [5]: more than 30% | reduction of cumulative emission of H2S [5]: 19.0% | reduction of cumulative emission of NH3 [5]: 29.2% | Ames assay result (mutagenicity) [6]: better results | Zebrafish assay result (teratogenesis/chromosomal impact) [7]: better results
